In US8802597B2, “Herbicidal pyrimidines” (E I du Pont de Nemours and Company, priority 2003, dated 2014):

Experiments:
Test in all cases: Test A pre/postemergence
Format in all cases: in vivo
[1] = test system: barnyardgrass (Echinochloa crus-galli)
Method: (§1) Seeds of barnyardgrass (Echinochloa crus-galli), crabgrass (Digitaria sanguinalis), giant foxtail (Setaria faberi), morningglory (Ipomoea spp.), redroot pigweed (Amaranthus retroflexus) and velvetleaf (Abutilon theophrasti) were planted into a blend of loam soil and sand and treated preemergence with a directed soil spray using test chemicals formulated in a non-phytotoxic solvent mixture which included a surfactant. At the same time these species were also treated with postemergence applications of test chemicals formulated in the same manner.
(§2) Plants ranged in height from 2 to 10 cm and were in the 1- to 2-leaf stage for the postemergence treatment. Treated plants and untreated controls were maintained in a greenhouse for approximately ten days, after which time all treated plants were compared to untreated controls and visually evaluated for injury. Plant response ratings, summarized in Table A, are based on a 0 to 100 scale where 0 is no effect and 100 is complete control. A dash (-) response means no test results.

[2] = test system: crabgrass (Digitaria sanguinalis)
Method: as §1, §2

[3] = test system: giant foxtail (Setaria faberi)
Method: as §1, §2

[4] = test system: morningglory (Ipomoea spp.)
Method: as §1, §2

[5] = test system: redroot pigweed (Amaranthus retroflexus)
Method: as §1, §2

[6] = test system: velvetleaf (Abutilon theophrasti)
Method: as §1, §2

[7] = Postemergence, 125 g ai/ha, 0 to 100 scale (0 no effect, 100 complete control)
[8] = Postemergence, 500 g ai/ha, 0 to 100 scale (0 no effect, 100 complete control)
[9] = Preemergence, 125 g ai/ha, 0 to 100 scale where 0 is no effect and 100 is complete control, approximately ten days
[10] = Preemergence, 500 g ai/ha, 0 to 100 scale where 0 is no effect and 100 is complete control, approximately ten days

SMILES | Plant response rating, Barnyardgrass [1, 7] | Plant response rating, Barnyardgrass [1, 8] | Plant response rating, Barnyardgrass [1, 9] | Plant response rating, Barnyardgrass [1, 10] | Plant response rating, Crabgrass [2, 7] | Plant response rating, Crabgrass [2, 8] | Plant response rating, Crabgrass [2, 9] | Plant response rating, Crabgrass [2, 10] | Plant response rating, Foxtail, Giant [3, 7] | Plant response rating, Foxtail, Giant [3, 8] | Plant response rating, Foxtail, Giant [3, 9] | Plant response rating, Foxtail, Giant [3, 10] | Plant response rating, Morningglory [4, 7] | Plant response rating, Morningglory [4, 8] | Plant response rating, Morningglory [4, 9] | Plant response rating, Morningglory [4, 10] | Plant response rating, Pigweed [5, 7] | Plant response rating, Pigweed [5, 8] | Plant response rating, Pigweed [5, 9] | Plant response rating, Pigweed [5, 10] | also measured
CC(C)OC(=O)c1nc(-c2ccc(Cl)cc2)nc(N)c1Cl [Compound 102] | 0 | 0 | 0 | 0 | 10 | 10 | 0 | 0 | 0 | 0 | 0 | 0 | 0 | 15 | 0 | 0 | 50 | 65 | 10 | 15 | Plant response rating, Velvetleaf [6, 7]: 45; Plant response rating, Velvetleaf [6, 8]: 70; Plant response rating, Velvetleaf [6, 9]: 10; Plant response rating, Velvetleaf [6, 10]: 20
CCOC(=O)c1nc(-c2ccc(OC(F)(F)F)cc2)nc(N)c1Cl [Compound 103] | 0 | 0 | 0 | 0 | 0 | 0 | 0 | 0 | 0 | 0 | 0 | 0 | 0 | 0 | 0 | 0 | 0 | 20 | 0 | 10 | Plant response rating, Velvetleaf [6, 7]: 45; Plant response rating, Velvetleaf [6, 8]: 70; Plant response rating, Velvetleaf [6, 9]: 0; Plant response rating, Velvetleaf [6, 10]: 10
CCOC(=O)c1nc(-c2ccc(C(F)(F)F)cc2)nc(N)c1Cl [Compound 104] | 0 | 10 | 0 | 5 | 15 | 30 | 0 | 10 | 0 | 5 | 0 | 5 | 25 | 40 | 0 | 0 | 30 | 45 | 0 | 10 | Plant response rating, Velvetleaf [6, 7]: 70; Plant response rating, Velvetleaf [6, 8]: 80; Plant response rating, Velvetleaf [6, 9]: 0; Plant response rating, Velvetleaf [6, 10]: 10
CCCOC(=O)c1nc(-c2ccc(Cl)cc2)nc(N)c1Cl [Compound 105] | 10 | 25 | 0 | 0 | 20 | 45 | 0 | 0 | 10 | 10 | 0 | 0 | 50 | 70 | 0 | 0 | 65 | 90 | 0 | 0 | Plant response rating, Velvetleaf [6, 7]: 85; Plant response rating, Velvetleaf [6, 8]: 95; Plant response rating, Velvetleaf [6, 9]: 0; Plant response rating, Velvetleaf [6, 10]: 0
CCOC(=O)c1nc(-c2ccccc2F)nc(N)c1Cl [Compound 106] | 0 | 5 | 0 | 5 | 0 | 0 | 0 | 0 | 0 | 0 | 0 | 0 | 20 | 35 | 0 | 0 | 15 | 70 | 0 | 30 | Plant response rating, Velvetleaf [6, 7]: 25; Plant response rating, Velvetleaf [6, 8]: 55; Plant response rating, Velvetleaf [6, 9]: 5; Plant response rating, Velvetleaf [6, 10]: 30
CCOC(=O)c1nc(-c2cccc(C(F)(F)F)c2)nc(N)c1Cl [Compound 107] | 0 | 0 | 0 | 0 | 0 | 5 | 0 | 5 | 0 | 35 | 0 | 0 | 0 | 0 | 0 | 0 | 10 | 10 | 0 | 0 | Plant response rating, Velvetleaf [6, 7]: 35; Plant response rating, Velvetleaf [6, 8]: 65; Plant response rating, Velvetleaf [6, 9]: 0; Plant response rating, Velvetleaf [6, 10]: 10
CC(C)c1nc(N)c(Cl)c(C(=O)[O-])n1.[Na+] [Compound 109] | 0 | 10 | 0 | 25 | 0 | 10 | 0 | 25 | 0 | 10 | 0 | 5 | 70 | 80 | 30 | 95 | 60 | 85 | 50 | 80 | Plant response rating, Velvetleaf [6, 7]: 25; Plant response rating, Velvetleaf [6, 8]: 80; Plant response rating, Velvetleaf [6, 9]: 15; Plant response rating, Velvetleaf [6, 10]: 50
COC(=O)COc1nc(C2CC2)nc(N)c1Cl [Compound 112] | 0 | 0 | 0 | 10 | 0 | 0 | 0 | 10 | 0 | 0 | 0 | 0 | 55 | 50 | 0 | 10 | 20 | 40 | 10 | 30 | Plant response rating, Velvetleaf [6, 7]: 20; Plant response rating, Velvetleaf [6, 8]: 35; Plant response rating, Velvetleaf [6, 9]: 0; Plant response rating, Velvetleaf [6, 10]: 10
CCOC(=O)COc1nc(-c2ccc(Cl)cc2)nc(N)c1Cl [Compound 114] | 0 | 0 | 0 | 0 | 0 | 0 | 0 | 0 | 0 | 0 | 0 | 0 | 40 | 55 | 0 | 0 | 45 | 55 | 0 | 0 | Plant response rating, Velvetleaf [6, 7]: 0; Plant response rating, Velvetleaf [6, 8]: 5; Plant response rating, Velvetleaf [6, 9]: 0; Plant response rating, Velvetleaf [6, 10]: 0
